According to patent publication US9708314B2, “Heterocyclic amide compound” (NISSAN CHEMICAL INDUSTRIES, LTD., priority 2013, dated 2017):

Tests used:
Assay type in all cases: in vivo
[1] = system: transplanted Oryza sativa; experiment: Test Example 1: effect on crop, application before weed generation in submerged conditions; settings: Application herbicide amount 320 g/ha; Seventeenth Table
How it was run: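 Water-diluted emulsion formulation is applied onto flood water (4 cm deep) covering alluvial soil on the day weed seeds are sown, after transplanting 2.5 leaf stage rice. Rates are expressed per hectare. Injury or control is graded 0–5 three weeks later.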

Abutilon theophrasti = experiment: Test Example 4: herbicidal effect by application to foliage (diluvial soil, plastic box); settings: Application herbicide amount 320 g/ha; foliage application
How it was run: (§1)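 Greenhouse plants (25° C. to 30° C., 14 d, diluvial soil) receive a foliar spray of water-diluted emulsifiable formulation at defined g/ha. Grading after 3 weeks uses a six-step herbicidal-ratio scale, with 4 covering 70% to <90% and 1 covering 5% to <20%.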

Alopecurus myosuroides = experiment: as above; settings: Application herbicide amount 320 g/ha; foliage application
How it was run: as §1

Amaranthus retroflexus = experiment: as above; settings: Application herbicide amount 320 g/ha; foliage application
How it was run: as §1

Apera spica-venti. = experiment: as above; settings: Application herbicide amount 320 g/ha; foliage application
How it was run: as §1

Avena fatua = experiment: as above; settings: Application herbicide amount 320 g/ha; foliage application
How it was run: as §1

Chenopodium album = experiment: as above; settings: Application herbicide amount 320 g/ha; foliage application
How it was run: as §1

Digitaria ciliaris = experiment: as above; settings: Application herbicide amount 320 g/ha; foliage application
How it was run: as §1

[2] = system: Echinochloa crus-galli var. crus-galli; experiment: as above; settings: Application herbicide amount 320 g/ha; foliage application
How it was run: as §1

Galium spurium = experiment: as above; settings: Application herbicide amount 320 g/ha; foliage application
How it was run: as §1

Lolium multiflorum Lam. = experiment: as above; settings: Application herbicide amount 320 g/ha; foliage application
How it was run: as §1

Setaria viridis = experiment: as above; settings: Application herbicide amount 320 g/ha; foliage application
How it was run: as §1

Stellaria media = experiment: as above; settings: Application herbicide amount 320 g/ha; foliage application
How it was run: as §1

Veronica persica = experiment: as above; settings: Application herbicide amount 320 g/ha; foliage application
How it was run: as §1

[3] = system: Beta vulgaris ssp. vulgaris; experiment: Test Example 4: effect on crop by application to foliage (diluvial soil, plastic box); settings: Application herbicide amount 320 g/ha; foliage application
How it was run: as §1

Brassica campestris L. = experiment: as above; settings: Application herbicide amount 320 g/ha; foliage application
How it was run: as §1

Glycine max = experiment: as above; settings: Application herbicide amount 320 g/ha; foliage application
How it was run: as §1

Triticum aestivum = experiment: as above; settings: Application herbicide amount 320 g/ha; foliage application
How it was run: as §1

Zea mays = experiment: as above; settings: Application herbicide amount 320 g/ha; foliage application
How it was run: as §1

SMILES	a: transplanted Oryza sativa (effect on crop grade) [1]	M (Abutilon theophrasti) herbicidal effect grade (Abutilon theophrasti)	J (Alopecurus myosuroides) herbicidal effect grade (Alopecurus myosuroides)	N (Amaranthus retroflexus) herbicidal effect grade (Amaranthus retroflexus)	L (Apera spica-venti.) herbicidal effect grade (Apera spica-venti.)	I (Avena fatua) herbicidal effect grade (Avena fatua)	O (Chenopodium album) herbicidal effect grade (Chenopodium album)	F (Digitaria ciliaris) herbicidal effect grade (Digitaria ciliaris)	H (Echinochloa crus-galli var. crus-galli) herbicidal effect grade [2]	Q (Galium spurium) herbicidal effect grade (Galium spurium)	K (Lolium multiflorum Lam.) herbicidal effect grade (Lolium multiflorum Lam.)	G (Setaria viridis) herbicidal effect grade (Setaria viridis)	P (Stellaria media) herbicidal effect grade (Stellaria media)	R (Veronica persica) herbicidal effect grade (Veronica persica)	f (Beta vulgaris ssp. vulgaris) effect on crop grade [3]	g (Brassica campestris L.) effect on crop grade (Brassica campestris L.)	d (Glycine max) effect on crop grade (Glycine max)	e (Triticum aestivum) effect on crop grade (Triticum aestivum)	c (Zea mays) effect on crop grade (Zea mays)
CSCCNc1nnc2c(C(=O)Nc3nnc(C)o3)ccc(C(F)(F)F)n12 [1-130]	1 (Herbicidal ratio of 5% or more and less than 20%)	3 (Herbicidal ratio of 40% or more and less than 70%)	1 (Herbicidal ratio of 5% or more and less than 20%)	3 (Herbicidal ratio of 40% or more and less than 70%)	1 (Herbicidal ratio of 5% or more and less than 20%)	1 (Herbicidal ratio of 5% or more and less than 20%)	5 (Herbicidal ratio of 90% or more (almost completely withered))	4 (Herbicidal ratio of 70% or more and less than 90%)	5 (Herbicidal ratio of 90% or more (almost completely withered))	4 (Herbicidal ratio of 70% or more and less than 90%)	1 (Herbicidal ratio of 5% or more and less than 20%)	4 (Herbicidal ratio of 70% or more and less than 90%)	3 (Herbicidal ratio of 40% or more and less than 70%)	3 (Herbicidal ratio of 40% or more and less than 70%)	5 (Herbicidal ratio of 90% or more (almost completely withered))	4 (Herbicidal ratio of 70% or more and less than 90%)	3 (Herbicidal ratio of 40% or more and less than 70%)	0 (Herbicidal ratio of 5% or less (almost no effect))	0 (Herbicidal ratio of 5% or less (almost no effect))
Cc1nnc(NC(=O)c2ccc(C(F)(F)F)n3c(NCC(F)(F)F)nnc23)o1 [1-131]	0 (Herbicidal ratio of 5% or less (almost no effect))	3 (Herbicidal ratio of 40% or more and less than 70%)	0 (Herbicidal ratio of 5% or less (almost no effect))	3 (Herbicidal ratio of 40% or more and less than 70%)	0 (Herbicidal ratio of 5% or less (almost no effect))	0 (Herbicidal ratio of 5% or less (almost no effect))	5 (Herbicidal ratio of 90% or more (almost completely withered))	4 (Herbicidal ratio of 70% or more and less than 90%)	4 (Herbicidal ratio of 70% or more and less than 90%)	0 (Herbicidal ratio of 5% or less (almost no effect))	0 (Herbicidal ratio of 5% or less (almost no effect))	3 (Herbicidal ratio of 40% or more and less than 70%)	3 (Herbicidal ratio of 40% or more and less than 70%)	3 (Herbicidal ratio of 40% or more and less than 70%)	3 (Herbicidal ratio of 40% or more and less than 70%)	0 (Herbicidal ratio of 5% or less (almost no effect))	3 (Herbicidal ratio of 40% or more and less than 70%)	0 (Herbicidal ratio of 5% or less (almost no effect))	0 (Herbicidal ratio of 5% or less (almost no effect))
Cc1nnc(NC(=O)c2ccc(C(F)(F)F)n3c(N(C)C4CCCCC4)nnc23)o1 [1-133]	0 (Herbicidal ratio of 5% or less (almost no effect))	3 (Herbicidal ratio of 40% or more and less than 70%)	0 (Herbicidal ratio of 5% or less (almost no effect))	3 (Herbicidal ratio of 40% or more and less than 70%)	0 (Herbicidal ratio of 5% or less (almost no effect))	0 (Herbicidal ratio of 5% or less (almost no effect))	4 (Herbicidal ratio of 70% or more and less than 90%)	3 (Herbicidal ratio of 40% or more and less than 70%)	4 (Herbicidal ratio of 70% or more and less than 90%)	1 (Herbicidal ratio of 5% or more and less than 20%)	0 (Herbicidal ratio of 5% or less (almost no effect))	0 (Herbicidal ratio of 5% or less (almost no effect))	4 (Herbicidal ratio of 70% or more and less than 90%)	2 (Herbicidal ratio of 20% or more and less than 40%)	3 (Herbicidal ratio of 40% or more and less than 70%)	0 (Herbicidal ratio of 5% or less (almost no effect))	3 (Herbicidal ratio of 40% or more and less than 70%)	0 (Herbicidal ratio of 5% or less (almost no effect))	0 (Herbicidal ratio of 5% or less (almost no effect))
CCN(C)c1nnc2c(C(=O)Nc3nnc(C)o3)ccc(C(F)(F)F)n12 [1-134]	0 (Herbicidal ratio of 5% or less (almost no effect))	4 (Herbicidal ratio of 70% or more and less than 90%)	1 (Herbicidal ratio of 5% or more and less than 20%)	3 (Herbicidal ratio of 40% or more and less than 70%)	1 (Herbicidal ratio of 5% or more and less than 20%)	0 (Herbicidal ratio of 5% or less (almost no effect))	5 (Herbicidal ratio of 90% or more (almost completely withered))	4 (Herbicidal ratio of 70% or more and less than 90%)	5 (Herbicidal ratio of 90% or more (almost completely withered))	3 (Herbicidal ratio of 40% or more and less than 70%)	1 (Herbicidal ratio of 5% or more and less than 20%)	3 (Herbicidal ratio of 40% or more and less than 70%)	4 (Herbicidal ratio of 70% or more and less than 90%)	4 (Herbicidal ratio of 70% or more and less than 90%)	5 (Herbicidal ratio of 90% or more (almost completely withered))	4 (Herbicidal ratio of 70% or more and less than 90%)	3 (Herbicidal ratio of 40% or more and less than 70%)	1 (Herbicidal ratio of 5% or more and less than 20%)	0 (Herbicidal ratio of 5% or less (almost no effect))
CCN(CC)c1nnc2c(C(=O)Nc3nnc(C)o3)ccc(C(F)(F)F)n12 [1-135]	1 (Herbicidal ratio of 5% or more and less than 20%)	3 (Herbicidal ratio of 40% or more and less than 70%)	1 (Herbicidal ratio of 5% or more and less than 20%)	3 (Herbicidal ratio of 40% or more and less than 70%)	1 (Herbicidal ratio of 5% or more and less than 20%)	1 (Herbicidal ratio of 5% or more and less than 20%)	5 (Herbicidal ratio of 90% or more (almost completely withered))	4 (Herbicidal ratio of 70% or more and less than 90%)	4 (Herbicidal ratio of 70% or more and less than 90%)	0 (Herbicidal ratio of 5% or less (almost no effect))	1 (Herbicidal ratio of 5% or more and less than 20%)	3 (Herbicidal ratio of 40% or more and less than 70%)	4 (Herbicidal ratio of 70% or more and less than 90%)	1 (Herbicidal ratio of 5% or more and less than 20%)	4 (Herbicidal ratio of 70% or more and less than 90%)	0 (Herbicidal ratio of 5% or less (almost no effect))	3 (Herbicidal ratio of 40% or more and less than 70%)	0 (Herbicidal ratio of 5% or less (almost no effect))	0 (Herbicidal ratio of 5% or less (almost no effect))
